Source: the supplement of paper PMC10307832

Key:
Test in all cases: relative viability (nuclei count vs DMSO), 5 days (fraction); higher = more cells survive
XMD8-85 + Trametinib = compound: CN1CCN(CC1)C2=CC(=C(C=C2)NC3=NC=C4C(=N3)N(C5=CC=CC=C5C(=O)N4C)C)OC [XMD8-85] + CC(=O)Nc1cccc(-n2c(=O)n(C3CC3)c(=O)c3c(Nc4ccc(I)cc4F)n(C)c(=O)c(C)c32)c1 [Trametinib] (partner 0.02 µM)
Summary of the method: (§1)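 Values are medians from duplicate plates. Each reflects relative viability, defined as the nuclei count of treated wells over that of vehicle wells. Lung cancer cell lines in 1536-well plates were pin-tool dosed one day after seeding with one drug alone or with a fixed anchor-drug dose plus five library-drug doses (not always all listed) in √10 steps, then fixed, stained and imaged at 4× after 5 days.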

XMD8-85 + Alpelisib = compound: CN1CCN(CC1)C2=CC(=C(C=C2)NC3=NC=C4C(=N3)N(C5=CC=CC=C5C(=O)N4C)C)OC [XMD8-85] + Cc1nc(NC(=O)N2CCC[C@H]2C(N)=O)sc1-c1ccnc(C(C)(C)C(F)(F)F)c1 [Alpelisib] (partner 2 µM)
Summary of the method: as §1

XMD8-85 + Phenformin = compound: CN1CCN(CC1)C2=CC(=C(C=C2)NC3=NC=C4C(=N3)N(C5=CC=CC=C5C(=O)N4C)C)OC [XMD8-85] + N=C(N)NC(=N)NCCc1ccccc1 [Phenformin] (partner 250 µM)
Summary of the method: as §1

4EGI-1 + Vorinostat = compound: O=C(O)C(Cc1ccccc1[N+](=O)[O-])=NNc1nc(-c2ccc(Cl)c(Cl)c2)cs1 (mixture of isomers) [4EGI-1] + O=C(CCCCCCC(=O)Nc1ccccc1)NO [Vorinostat] (partner 1 µM)
Summary of the method: as §1

| Cell Line | relative viability (XMD8-85 + Trametinib; first compound 0.08 µM) | relative viability (XMD8-85 + Trametinib; first compound 0.253 µM) | relative viability (XMD8-85 + Trametinib; first compound 0.8 µM) | relative viability (XMD8-85 + Trametinib; first compound 2.53 µM) | relative viability (XMD8-85 + Trametinib; first compound 8 µM) | relative viability (XMD8-85 + Alpelisib; first compound 0.08 µM) | relative viability (XMD8-85 + Alpelisib; first compound 0.253 µM) | relative viability (XMD8-85 + Alpelisib; first compound 0.8 µM) | relative viability (XMD8-85 + Alpelisib; first compound 2.53 µM) | relative viability (XMD8-85 + Alpelisib; first compound 8 µM) | relative viability (XMD8-85 + Phenformin; first compound 0.08 µM) | relative viability (XMD8-85 + Phenformin; first compound 0.253 µM) | relative viability (XMD8-85 + Phenformin; first compound 0.8 µM) | relative viability (XMD8-85 + Phenformin; first compound 2.53 µM) | relative viability (XMD8-85 + Phenformin; first compound 8 µM) | relative viability (4EGI-1 + Vorinostat; first compound 0.5 µM) | relative viability (4EGI-1 + Vorinostat; first compound 1.581 µM) | relative viability (4EGI-1 + Vorinostat; first compound 5 µM) | relative viability (4EGI-1 + Vorinostat; first compound 15.81 µM) | relative viability (4EGI-1 + Vorinostat; first compound 50 µM) |
| --- | --- | --- | --- | --- | --- | --- | --- | --- | --- | --- | --- | --- | --- | --- | --- | --- | --- | --- | --- | --- |
| NCI-H441 | 0.4 | 0.427 | 0.463 | 0.494 | 0.234 | 0.837 | 1.03 | 0.693 | 0.714 | 0.698 | 0.954 | 0.689 | 0.81 | 1.12 | 0.571 | 0.727 | 0.909 | 0.75 | 0.641 | 0.414 |
| PC-3 [JPC-3] | 0.672 | 0.83 | 0.75 | 0.717 | 0.599 | 1.02 | 1.05 | 1.06 | 1.01 | 1.01 | 0.431 | 0.446 | 0.467 | 0.537 | 0.514 | 0.753 |  | 0.867 | 0.418 | 0.307 |
| NCI-H1915 | 0.328 | 0.309 | 0.251 | 0.478 | 0.282 | 1.08 | 1.09 | 1.07 | 1.05 | 0.962 | 0.359 | 0.349 | 0.377 | 0.354 | 0.348 | 0.536 | 0.36 | 0.599 | 0.542 | 0.387 |
| HCC-44 | 1.11 | 1.12 | 1.12 | 1.04 | 1.01 | 0.835 | 0.79 | 0.852 | 0.64 | 0.307 | 0.241 | 0.267 | 0.184 | 0.205 | 0.108 | 1.06 | 0.872 | 0.988 | 0.916 | 0.566 |
| NCI-H522 | 0.821 | 0.653 | 0.739 | 0.698 | 0.537 |  |  |  |  |  | 0.664 | 0.697 | 0.338 | 0.367 | 0.67 | 0.812 | 0.903 | 0.954 | 1.03 | 0.634 |
| EBC-1 |  |  |  |  |  | 0.871 | 0.94 |  | 0.694 | 0.336 |  |  |  |  |  |  |  |  |  |  |
| NCI-H1650 | 0.629 | 0.539 | 0.784 | 0.426 | 0.36 |  |  |  |  |  | 0.411 | 0.449 | 0.401 | 0.36 | 0.178 | 0.637 |  | 0.649 | 0.356 | 0.157 |
| NCI-H1299 |  |  |  |  |  | 1.15 | 0.948 | 1.08 | 1.07 | 0.874 |  |  |  |  |  |  |  |  |  |  |
| ABC-1 |  |  |  |  |  | 1.03 | 1.15 | 1.37 | 1.01 |  | 0.221 | 0.245 | 0.248 | 0.234 | 0.229 | 1.16 |  | 1.35 | 0.439 | 0.284 |
| NCI-H1623 |  |  |  |  |  |  |  |  |  |  | 0.611 | 0.584 | 0.578 | 0.555 |  |  |  |  |  |  |
| Calu-6 |  |  |  |  |  | 1.02 | 0.985 | 1.05 | 1.08 | 0.865 |  |  |  |  |  |  |  |  |  |  |
| NCI-H1563 |  |  |  |  |  | 1.04 | 0.967 | 0.882 | 0.814 | 0.709 | 0.65 | 0.609 | 0.63 |  | 0.615 |  |  |  |  |  |
| A549 |  |  |  |  |  | 0.744 | 0.883 | 0.806 | 0.807 | 0.759 | 0.0975 | 0.198 | 0.149 | 0.274 | 0.193 |  |  |  |  |  |
